Measured values: patent publication US11051515B2, “3-acyl-benzamides and their use as herbicides” (Bayer Aktiengesellschaft, priority 2017, dated 2021)

Experiments:
[1] = system: ALOMY; test: Pre-emergence action against ALOMY; type: in vivo, Alopecurus myosuroides; conditions: dosage 320 g/ha; pre-emergence; scored visually after 3 weeks vs untreated controls; 100% = plants have died, 0% = like control plants
Text: (§1) Seeds of monocotyledonous and dicotyledonous weed plants and crop plants are laid out in sandy loam soil in wood-fiber pots and covered with soil. The compounds of the invention, formulated in the form of wettable powders (WP) or as emulsion concentrates (EC), are then applied to the surface of the covering soil in the form of an aqueous suspension or emulsion at a water application rate equating to […], with addition of 0.2% wetting agent. After the treatment, the pots are placed in a greenhouse and kept under good growth conditions for the trial plants. The damage to the test plants is scored visually after a test period of 3 weeks by comparison with untreated controls (herbicidal activity in percent (%): 100% activity=the plants have died, 0% activity=like control plants).

[2] = system: ECHCG; test: Pre-emergence action against ECHCG; type: in vivo, Echinochloa crus-galli; conditions: pre-emergence, dosage 320 g/ha, scored visually after 3 weeks vs untreated controls
Text: as §1

[3] = system: SETVI; test: Pre-emergence action against SETVI; type: in vivo, Setaria viridis; conditions: pre-emergence, dosage 320 g/ha, scored visually after 3 weeks vs untreated controls
Text: as §1

[4] = system: ABUTH; test: Pre-emergence action against ABUTH; type: in vivo, Abutilon theophrasti; conditions: pre-emergence, dosage 320 g/ha, scored visually after 3 weeks vs untreated controls
Text: as §1

[5] = system: AMARE; test: Pre-emergence action against AMARE; type: in vivo, Amaranthus retroflexus; conditions: pre-emergence, dosage 320 g/ha, scored visually after 3 weeks vs untreated controls
Text: as §1

[6] = system: MATIN; test: Pre-emergence action against MATIN; type: in vivo, Matricaria inodora; conditions: Dosage 320 g/ha, pre-emergence
Text: as §1

[7] = system: PHBPU; test: Pre-emergence action against PHBPU; type: in vivo, Pharbitis purpurea; conditions: Dosage 320 g/ha, pre-emergence
Text: as §1

[8] = system: STEME; test: Pre-emergence action against STEME; type: in vivo, Stellaria media; conditions: Dosage 320 g/ha, pre-emergence
Text: as §1

[9] = system: VIOTR; test: Pre-emergence action against VIOTR; type: in vivo, Viola tricolor; conditions: Dosage 320 g/ha, pre-emergence
Text: as §1

[10] = system: VERPE; test: Pre-emergence action against VERPE; type: in vivo, Veronica persica; conditions: Dosage 320 g/ha, pre-emergence
Text: as §1

[11] = system: ECHCG; test: Post-emergence action against ECHCG; type: in vivo, Echinochloa crus-galli; conditions: post-emergence, dosage 80 g/ha, visual assessment about 3 weeks after treatment vs untreated controls
Method: (§2) Seeds of monocotyledonous and dicotyledonous weed and crop plants are laid out in sandy loam soil in wood-fiber pots, covered with soil and cultivated in a greenhouse under good growth conditions. 2 to 3 weeks after sowing, the test plants are treated at the one-leaf stage. The compounds of the invention, formulated in the form of wettable powders (WP) or as emulsion concentrates (EC), are then sprayed onto the green parts of the plants in the form of an aqueous suspension or emulsion at a water application rate equating to […], with addition of 0.2% wetting agent. After the test plants have been left to stand in the greenhouse under optimal growth conditions for about 3 weeks, the action of the preparations is assessed visually in comparison to untreated controls (herbicidal action in percent (%): 100% activity=the plants have died, 0% activity=like control plants). […] At the same time, inventive compounds leave Gramineae crops such as barley, wheat, rye, millet/Sorghum, corn or rice virtually undamaged when applied post-emergence, even at high active ingredient dosages. In addition, some substances are also harmless to dicotyledonous crops such as soya, cotton, oilseed rape, sugar beet or potatoes. Some of the compounds according to the invention have high selectivity and are therefore suitable for controlling unwanted vegetation in agricultural crops by the post-emergence method. The data of Tables B18 to B34 below illustrate, in an exemplary manner, the […] herbicidal action of the compounds according to the invention, the herbicidal activity being stated in percent.

[12] = system: SETVI; test: Post-emergence action against SETVI; type: in vivo, Setaria viridis; conditions: post-emergence, dosage 80 g/ha, visual assessment about 3 weeks after treatment vs untreated controls
Method: as §2

[13] = system: ABUTH; test: Post-emergence action against ABUTH; type: in vivo, Abutilon theophrasti; conditions: post-emergence, dosage 80 g/ha, visual assessment about 3 weeks after treatment vs untreated controls
Method: as §2

[14] = system: AMARE; test: Post-emergence action against AMARE; type: in vivo, Amaranthus retroflexus; conditions: post-emergence, dosage 80 g/ha, visual assessment about 3 weeks after treatment vs untreated controls
Method: as §2

[15] = system: MATIN; test: Post-emergence action against MATIN; type: in vivo, Matricaria inodora; conditions: post-emergence, dosage 80 g/ha, visual assessment about 3 weeks after treatment vs untreated controls
Method: as §2

[16] = system: PHBPU; test: Post-emergence action against PHBPU; type: in vivo, Pharbitis purpurea; conditions: post-emergence, dosage 80 g/ha
Method: as §2

[17] = system: STEME; test: Post-emergence action against STEME; type: in vivo, Stellaria media; conditions: post-emergence, dosage 80 g/ha
Method: as §2

[18] = system: VIOTR; test: Post-emergence action against VIOTR; type: in vivo, Viola tricolor; conditions: post-emergence, dosage 80 g/ha
Method: as §2

[19] = system: VERPE; test: Post-emergence action against VERPE; type: in vivo, Veronica persica; conditions: dosage 80 g/ha
Method: as §2

[20] = system: AVEFA; test: Pre-emergence action against AVEFA; type: in vivo, Avena fatua; conditions: dosage 320 g/ha, scored visually after 3 weeks vs untreated controls
Text: as §1

[21] = system: CYPES; test: Pre-emergence action against CYPES; type: in vivo, Cyperus esculentus; conditions: pre-emergence, dosage 320 g/ha, scored visually after 3 weeks vs untreated controls
Text: as §1

[22] = system: CYPES; test: Post-emergence action against CYPES; type: in vivo, Cyperus esculentus; conditions: post-emergence, dosage 80 g/ha, visual assessment about 3 weeks after treatment vs untreated controls
Method: as §2

[23] = system: POLCO; test: Pre-emergence action against POLCO; type: in vivo, Polygonum convolvulus; conditions: Dosage 320 g/ha, pre-emergence
Text: as §1

CCCn1nnnc1NC(=O)c1ccc(C(F)(F)F)c(C(=O)CC)c1C [3-15]
Pre-emergence action against ALOMY (herbicidal activity in percent) [1]: 80%
Pre-emergence action against ECHCG (herbicidal activity) [2]: 100%
SETVI (Table B8, pre-emergence herbicidal activity) [3]: 100%
Pre-emergence action against ABUTH (herbicidal activity) [4]: 100%
Pre-emergence action against AMARE (herbicidal activity) [5]: 100%
Pre-emergence action against MATIN [6]: 100%
Pre-emergence action against PHBPU [7]: 80%
Pre-emergence action against STEME [8]: 100%
Pre-emergence action against VIOTR [9]: 100%
Pre-emergence action against VERPE [10]: 100%
Post-emergence action against ECHCG (herbicidal action in percent) [11]: 100%
Post-emergence action against SETVI (herbicidal action in percent) [12]: 100%
Post-emergence action against ABUTH (herbicidal action in percent) [13]: 90%
Post-emergence action against AMARE (herbicidal action in percent) [14]: 90%
Post-emergence action against MATIN (herbicidal action in percent) [15]: 100%
Post-emergence action against PHBPU [16]: 90
Post-emergence action against STEME [17]: 100
Post-emergence action against VIOTR [18]: 90
Post-emergence action against VERPE [19]: 90

CCn1nnnc1NC(=O)c1ccc(C(F)(F)F)c(C(=O)c2cc(F)cc(F)c2)c1Cl [2-286]
Pre-emergence action against ABUTH (herbicidal activity) [4]: 80%
Pre-emergence action against AMARE (herbicidal activity) [5]: 100%
Pre-emergence action against PHBPU [7]: 80%
Pre-emergence action against VIOTR [9]: 100%
Post-emergence action against ECHCG (herbicidal action in percent) [11]: 80%
Post-emergence action against ABUTH (herbicidal action in percent) [13]: 80%
Post-emergence action against AMARE (herbicidal action in percent) [14]: 90%
Post-emergence action against PHBPU [16]: 90
Post-emergence action against VIOTR [18]: 80

CCCn1nnnc1NC(=O)c1ccc(C)c(C(=O)C2CC2)c1Cl [3-136]
Pre-emergence action against ECHCG (herbicidal activity) [2]: 80%
Pre-emergence action against ABUTH (herbicidal activity) [4]: 80%
Pre-emergence action against AMARE (herbicidal activity) [5]: 90%
Pre-emergence action against MATIN [6]: 90%
Pre-emergence action against PHBPU [7]: 90%
Post-emergence action against ECHCG (herbicidal action in percent) [11]: 80%
Post-emergence action against AMARE (herbicidal action in percent) [14]: 80%
Post-emergence action against MATIN (herbicidal action in percent) [15]: 90%
Post-emergence action against PHBPU [16]: 90
Post-emergence action against STEME [17]: 100
Post-emergence action against VIOTR [18]: 80
Post-emergence action against VERPE [19]: 80

CCCn1nnnc1NC(=O)c1ccc(C(F)(F)F)c(C(=O)COC)c1Cl [3-144]
Pre-emergence action against ALOMY (herbicidal activity in percent) [1]: 90%
Pre-emergence action against AVEFA (herbicidal activity) [20]: 80%
Pre-emergence action against CYPES (herbicidal activity) [21]: 100%
Pre-emergence action against ECHCG (herbicidal activity) [2]: 100%
SETVI (Table B8, pre-emergence herbicidal activity) [3]: 100%
Pre-emergence action against ABUTH (herbicidal activity) [4]: 100%
Pre-emergence action against AMARE (herbicidal activity) [5]: 100%
Pre-emergence action against MATIN [6]: 100%
Pre-emergence action against PHBPU [7]: 80%
Pre-emergence action against STEME [8]: 100%
Pre-emergence action against VIOTR [9]: 100%
Pre-emergence action against VERPE [10]: 100%
Post-emergence action against ECHCG (herbicidal action in percent) [11]: 80%
Post-emergence action against SETVI (herbicidal action in percent) [12]: 100%
Post-emergence action against ABUTH (herbicidal action in percent) [13]: 90%
Post-emergence action against AMARE (herbicidal action in percent) [14]: 90%
Post-emergence action against MATIN (herbicidal action in percent) [15]: 90%
Post-emergence action against PHBPU [16]: 100
Post-emergence action against STEME [17]: 100
Post-emergence action against VIOTR [18]: 80
Post-emergence action against VERPE [19]: 80

CCC(=O)c1c(C)ccc(C(=O)Nc2nnnn2CC)c1Cl [2-135]
Pre-emergence action against ALOMY (herbicidal activity in percent) [1]: 90%
Pre-emergence action against ECHCG (herbicidal activity) [2]: 90%
Pre-emergence action against AMARE (herbicidal activity) [5]: 100%
Pre-emergence action against MATIN [6]: 90%
Pre-emergence action against STEME [8]: 90%
Pre-emergence action against VERPE [10]: 90%
Post-emergence action against CYPES (herbicidal action in percent) [22]: 80%
Post-emergence action against ECHCG (herbicidal action in percent) [11]: 90%
Post-emergence action against ABUTH (herbicidal action in percent) [13]: 80%
Post-emergence action against AMARE (herbicidal action in percent) [14]: 90%
Post-emergence action against MATIN (herbicidal action in percent) [15]: 90%
Post-emergence action against PHBPU [16]: 90
Post-emergence action against STEME [17]: 100
Post-emergence action against VIOTR [18]: 90

CCn1nnnc1NC(=O)c1ccc(C)c(C(=O)C2CC2)c1Cl [2-136]
Pre-emergence action against ALOMY (herbicidal activity in percent) [1]: 90%
Pre-emergence action against ABUTH (herbicidal activity) [4]: 90%
Pre-emergence action against AMARE (herbicidal activity) [5]: 100%
Pre-emergence action against MATIN [6]: 100%
Pre-emergence action against PHBPU [7]: 100%
Pre-emergence action against STEME [8]: 90%
Pre-emergence action against VERPE [10]: 90%
Post-emergence action against MATIN (herbicidal action in percent) [15]: 90%
Post-emergence action against PHBPU [16]: 90
Post-emergence action against STEME [17]: 80
Post-emergence action against VIOTR [18]: 80

CCn1nnnc1NC(=O)c1ccc(C(F)(F)F)c(C(=O)C(C)(C)C)c1Cl [2-143]
Pre-emergence action against CYPES (herbicidal activity) [21]: 90%
Pre-emergence action against ECHCG (herbicidal activity) [2]: 90%
SETVI (Table B8, pre-emergence herbicidal activity) [3]: 80%
Pre-emergence action against ABUTH (herbicidal activity) [4]: 100%
Pre-emergence action against AMARE (herbicidal activity) [5]: 100%
Pre-emergence action against MATIN [6]: 100%
Pre-emergence action against POLCO [23]: 100%
Pre-emergence action against STEME [8]: 100%
Pre-emergence action against VIOTR [9]: 100%
Pre-emergence action against VERPE [10]: 100%
Post-emergence action against STEME [17]: 90

CCCn1nnnc1NC(=O)c1ccc(C)c(C(=O)C2CC2)c1C [3-3]
Pre-emergence action against ALOMY (herbicidal activity in percent) [1]: 90%
Pre-emergence action against CYPES (herbicidal activity) [21]: 90%
Pre-emergence action against ECHCG (herbicidal activity) [2]: 100%
SETVI (Table B8, pre-emergence herbicidal activity) [3]: 90%
Pre-emergence action against ABUTH (herbicidal activity) [4]: 80%
Pre-emergence action against AMARE (herbicidal activity) [5]: 100%
Pre-emergence action against MATIN [6]: 100%
Pre-emergence action against STEME [8]: 90%
Post-emergence action against ECHCG (herbicidal action in percent) [11]: 100%
Post-emergence action against AMARE (herbicidal action in percent) [14]: 100%
Post-emergence action against STEME [17]: 80

CCCn1nnnc1NC(=O)c1ccc(C)c(C(C)=O)c1C [3-1]
Pre-emergence action against ALOMY (herbicidal activity in percent) [1]: 90%
Pre-emergence action against CYPES (herbicidal activity) [21]: 90%
Pre-emergence action against ECHCG (herbicidal activity) [2]: 90%
SETVI (Table B8, pre-emergence herbicidal activity) [3]: 90%
Pre-emergence action against ABUTH (herbicidal activity) [4]: 100%
Pre-emergence action against AMARE (herbicidal activity) [5]: 100%
Pre-emergence action against MATIN [6]: 100%
Pre-emergence action against POLCO [23]: 90%
Pre-emergence action against STEME [8]: 90%
Pre-emergence action against VIOTR [9]: 100%
Post-emergence action against ECHCG (herbicidal action in percent) [11]: 100%
Post-emergence action against ABUTH (herbicidal action in percent) [13]: 80%
Post-emergence action against AMARE (herbicidal action in percent) [14]: 90%
Post-emergence action against MATIN (herbicidal action in percent) [15]: 100%
Post-emergence action against PHBPU [16]: 80
Post-emergence action against STEME [17]: 90
Post-emergence action against VIOTR [18]: 100
